One assay deals with wild-type CD4+ T cells. The assay can be described thus: Binding of quantum dot-labeled T cells to peptoid resynthesized on beads. Details: species or system mice.
For the next assay, the system named is B cells. Put plainly: B cell proliferation. The assay is classed as cell-based.
For assay [1], the system named is CD4+ T cells from MBP Ac1-11 TCR transgenic mice. Put plainly: Binding of quantum dot-labeled T cells to peptoid resynthesized on beads. To be noted: red quantum dot-labeled. As to the method:
To determine whether AG12A was binding to the autoreactive TCR, the inventors took advantage of the existence of transgenic mice, in which the vast majority of CD4+ T cells express the MBP Ac1-11 specific TCR (Vα2.3/Vβ8.2 TCR) (Goveman et al., 1993). CD4+ T cells were isolated from these mice and tested for binding to AG12A. This was done in several ways. First, AG12A was resynthesized on beads, as was a control peptoid not selected as a T cell ligand. The beads were then incubated with red quantum dot-labeled T cells.

Assay [2] concerns Myelin Oligodendrocyte Glycoprotein (MOG) 35-55 specific TCR transgenic T cells. The assay can be described thus: Antigen-stimulated T cell proliferation, CFSE dilution by flow cytometry. Type of assay: cell-based. (In general: Flow cytometry measures light scatter and fluorescence of single cells or particles in a stream.)
In assay [3] the test system is MBP Ac1-11 specific T cells (Vα2.3/Vβ8.2 TCR transgenic). Put plainly: DOPA chemical cross-linking, streptavidin staining, mean fluorescence intensity. Details: species or system mice. The conditions noted are these: biotin-labeled DOPA-peptoid, periodate cross-linking, CD4+/streptavidin+ cells; read-out: Kr, of binding to MBP Ac1-11 specific T cells.
For assay [4], the target named is pemphigus vulgaris autoantibody (Dsg3). The assay can be described thus: Solution binding to pemphigus vulgaris autoantibody. The conditions noted are these: pemphigus vulgaris autoantibody to the Dsg autoantigen; read-out: binding affinity in solution.

Bridge positions count the residues as written; N and C are the ends. Square brackets hold non-standard residues; d marks the D form. Peptide text beside a SMILES is read from it. ξ: configuration not given here. Gly(N-CH2CH2C6H4-4Cl) = O=C(O)CNCCc1ccc(Cl)cc1; Gly(N-piperonyl) = O=C(O)CNCc1ccc2c(c1)OCO2; Nrpe = C[C@@H](NCC(=O)O)c1ccccc1; NFurfurylGly = O=C(O)CNCc1ccco1; ξE = NC(CCC(=O)O)C(=O)O; Nleu = CC(C)CNCC(=O)O; Nlys = NCCCCNCC(=O)O; Nme = COCCNCC(=O)O

In the case of `CC(C)CNCC(=O)N(CCCCN)CC(=O)N(CC(=O)N(CC(=O)N(CCCCN)CC(=O)N(CC(=O)N(CCCCN)CC(=O)N(CCCCN)CC(N)=O)CC(C)C)[C@H](C)c1ccccc1)Cc1ccco1` [AG12A] (H-[Nleu][Nlys][NFurfurylGly][Nrpe][Nlys][Nleu][Nlys][Nlys]-NH2; C-terminus assumed), the “binding of T cells to peptoid displayed on beads” value in the assay on wild-type CD4+ T cells is recorded as “did not”; in assay [1], “bound to AG12A displayed on beads”. In addition, the “inhibition of proliferation of B cells” value in the assay with B cells is given as “nor did AG12A inhibit proliferation of B cells”. The “inhibition of antigen-stimulated proliferation of MOG 35-55 specific TCR transgenic T cells” value in assay [2] was “did not inhibit”. Moreover, the Kd in assay [3] was roughly 40 µM.

Take `COCCN1CC(=O)N(CCCCN)CC(=O)N(Cc2ccc3c(c2)OCO3)CC(=O)N(CCc2ccc(Cl)cc2)CC(=O)NC(C(N)=O)CCC1=O` (stereo not drawn) [compound 1a] ([Nme][Nlys][Gly(N-piperonyl)][Gly(N-CH2CH2C6H4-4Cl)][ξE]-NH2; lactam N-5): the Kd in assay [4] was roughly 10 µM.

The values are drawn from patent US9458199B2, “Antigen surrogates in autoimmune disease” (OPKO Pharmaceuticals, LLC, priority 2011, dated 2016).
